Bridge positions count the residues as written; N and C are the ends. Square brackets hold non-standard residues; d marks the D form. Peptide text beside a SMILES is read from it. dNMeW = CN[C@H](Cc1c[nH]c2ccccc12)C(=O)O; NMeY = CN[C@@H](Cc1ccc(O)cc1)C(=O)O; NMeF = CN[C@@H](Cc1ccccc1)C(=O)O; NMeT = CN[C@H](C(=O)O)[C@@H](C)O; NMeK = CN[C@@H](CCCCN)C(=O)O; NMeC = CN[C@@H](CS)C(=O)O Some results are limits rather than exact numbers.

In assay [1] the target is T1, hSSTR-2 (Homo sapiens, UniProt P30874).
T1 construct: each containing the entire coding region of the full-length receptors; expressed in transfected cells
T1 sequence (P30874 whole entry): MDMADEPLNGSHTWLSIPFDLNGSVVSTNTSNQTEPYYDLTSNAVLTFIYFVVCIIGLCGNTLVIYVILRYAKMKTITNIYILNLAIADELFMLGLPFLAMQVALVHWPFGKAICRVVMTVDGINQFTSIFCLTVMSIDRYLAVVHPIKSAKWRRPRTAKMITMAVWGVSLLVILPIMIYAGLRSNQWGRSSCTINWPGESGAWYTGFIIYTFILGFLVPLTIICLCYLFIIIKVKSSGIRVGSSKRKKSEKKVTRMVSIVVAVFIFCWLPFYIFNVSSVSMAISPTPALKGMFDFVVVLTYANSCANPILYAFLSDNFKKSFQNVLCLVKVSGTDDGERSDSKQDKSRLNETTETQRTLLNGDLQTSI
Nature of the assay: Radioligand binding assay, cloned human somatostatin receptor type 2. To be noted: CHO-K1 cell membranes, displacement of [125I]MK-678; mean ± SEM, single values = one experiment; read-out: Kd ± SEM hsst2. From the text:
(§1) Functional Expression of the Cloned Human Somatostatin Receptors. The genomic clones containing the human somatostatin receptors (hSSTR-1 to hSSTR-5) (Yamada, Y., et al. al., Proc. Natl. Acad. Sci. USA. 1992, 89, 251-255; Yasuda, K., et al., J. Biol. Chem. 1992, 267, 20422-20428; Yamada, Y., et al., Mol. Pharmacol. 1992, 42, 2136-2142; Rohrer, L., et al., Proc. Natl. Acad. Sci. USA. 1993, 90, 4196-4200.) were kindly provided by Dr. Graeme I. Bell of the University of Chicago. The hSSTR-1, hSSTR-2, hSSTR-3, hSSTR-4 and hSSTR-5 cDNAs were isolated as a 1.5-kb PstI-XmnI fragment, 1.7-kb BamHI-HindIII fragment, 2.0-kb NcoI-HindIII fragment, 1.4-kb NheI-NdeI fragment, and a 1.2-kb HindIII-XbaI fragment, respectively, each containing the entire coding region of the full-length receptors. These fragments were independently subcloned into the corresponding restriction endonuclease sites in the mammalian expression vector pCMV5, downstream from the human cytomegalovirus (CMV) promoter, to produce the expression plasmids pCMV5/hSSTR-1, pCMV5/hSSTR-2, pCMV5/hSSTR-3, pCMV5/hSSTR-4 and pCMV5/hSSTR-5. For transfection into CHO-K1 cells, a plasmid, pRSV-neo (American Type Culture Collection, Rockville, Md.), carrying the neomycin mammalian cell selectable marker was added.
(§2) Receptor Expression and Transfection. Transfections were performed by the calcium phosphate method. CHO-K1 cells were maintained in α-minimum essential medium (α-MEM; Gibco) supplemented with 10% fetal calf serum and transfected with each of the expression plasmids using calcium phosphate precipitation. Clones that had inherited the expression plasmid were selected in α-MEM supplemented with 500 μg mL^−1 of geneticin (G418; Gibco). Independent CHO-K1 clones were picked by glass-ring cloning and expanded in culture in the selective media. Membranes were prepared from the isolated clones and hSSTR expression was initially assessed for binding with [^125I]Tyr^11-SRIF and [^125I]MK-678 (for SSTR-2).
(§3) Radioligand Binding Assays. Cell membranes of the 5 cells types were obtained from homogenates (Polytron setting 6, 15 sec) of the corresponding CHO-K1 cells, in ice-cold Tris-HCl (50 mM) and centrifuged (39000 g, 10 min×2), with an intermediate resuspension in fresh buffer. The final pellets were resuspended in Tris-HCl (10 mM) for assay. Aliquots of the membranes were incubated (30 min at 37° C.) with 0.05 nM [^125I]Tyr^11-SRIF (types 1, 3, 4, 5) or [^125I]MK-678 (type 2) in […] (pH 7.4) containing BSA (10 mg mL^−1); MgCl2 (5 mM), Trasylol (200 kIU mL^−1), bacitracin (0.02 mg mL^−1), and phenylmethanesulfonyl fluoride (0.02 mg mL^−1). The final assay volume was 0.3 mL and incubations were terminated by rapid filtration through GF/C filters pre-soaked in 0.3% poly(ethylenimine) using a Brandel rapid filtration module. Each tube and filter was then washed with aliquots of cold buffer (3×5 mL).
(§4) Specific binding is defined as the total radioligand bound minus that bound in the presence of 1.0 μM SRIF. The following total radioligand binding and non-specific binding (nsb) values were typically obtained with these assay systems: hSSTR-1, 7000 cpm total versus 3500 cpm nsb; hSSTR-2, 9000 cpm total versus 1000 cpm nsb; hSSTR-3, 8000 cpm total versus 1000 cpm nsb; hSSTR-4, 6000 cpm total versus 3500 cpm nsb; and hSSTR-5, 7500 cpm total versus 3500 cpm nsb. The binding affinities are expressed as Ki values ±SEM (nM) for each of the five receptor subtypes. Ki values derived for representative compounds of the instant invention are detailed in Table 2.
(§5) The binding affinities (Kd, nM) of all SRIF analogues were determined using their concentration-dependent displacement of ^125I-radiolabeled peptide ligands from membranes isolated from CHO cells transfected with the corresponding human somatostatin receptor.

Assay [2] addresses T2, hSSTR-4 (Homo sapiens, UniProt P31391).
T2 construct: each containing the entire coding region of the full-length receptors; expressed in transfected cells
Nature of the assay: Radioligand binding assay, cloned human somatostatin receptor type 4. Conditions: CHO-K1 cell membranes, displacement of [125I]Tyr11-SRIF; mean ± SEM, single values = one experiment; read-out: Kd ± SEM hsst4.
Description: as §1, §2, §3, §4, §5

In assay [3] the target is T3, hSSTR-1 (Homo sapiens, UniProt P30872).
T3 construct: each containing the entire coding region of the full-length receptors; expressed in transfected cells
T3 sequence (P30872 whole entry): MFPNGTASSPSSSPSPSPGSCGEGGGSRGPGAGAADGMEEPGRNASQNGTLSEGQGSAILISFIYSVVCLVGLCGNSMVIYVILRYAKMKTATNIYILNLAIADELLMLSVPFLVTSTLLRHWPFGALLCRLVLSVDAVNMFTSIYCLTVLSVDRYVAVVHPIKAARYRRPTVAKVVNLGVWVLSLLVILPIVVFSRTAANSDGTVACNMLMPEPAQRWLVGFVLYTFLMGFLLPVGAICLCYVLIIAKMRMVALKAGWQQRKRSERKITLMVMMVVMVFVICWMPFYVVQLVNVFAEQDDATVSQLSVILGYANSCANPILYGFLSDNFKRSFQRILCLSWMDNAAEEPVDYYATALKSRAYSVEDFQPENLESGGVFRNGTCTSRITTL
Nature of the assay: Radioligand binding assay, cloned human somatostatin receptor type 1. Conditions: CHO-K1 cell membranes, displacement of [125I]Tyr11-SRIF; mean ± SEM, single values = one experiment; read-out: Kd ± SEM hsst1.
Description: as §1, §2, §3, §4, §5

Assay [4] has as its target T4, hSSTR-3 (Homo sapiens, UniProt P32745).
T4 construct: each containing the entire coding region of the full-length receptors; expressed in transfected cells
Nature of the assay: Radioligand binding assay, cloned human somatostatin receptor type 3. To be noted: CHO-K1 cell membranes, displacement of [125I]Tyr11-SRIF; mean ± SEM, single values = one experiment; read-out: Kd ± SEM hsst3.
Description: as §1, §2, §3, §4, §5

The target of assay [5] is T5, hSSTR-5 (Homo sapiens, UniProt P35346).
T5 construct: each containing the entire coding region of the full-length receptors; expressed in transfected cells
T5 sequence (P35346 whole entry): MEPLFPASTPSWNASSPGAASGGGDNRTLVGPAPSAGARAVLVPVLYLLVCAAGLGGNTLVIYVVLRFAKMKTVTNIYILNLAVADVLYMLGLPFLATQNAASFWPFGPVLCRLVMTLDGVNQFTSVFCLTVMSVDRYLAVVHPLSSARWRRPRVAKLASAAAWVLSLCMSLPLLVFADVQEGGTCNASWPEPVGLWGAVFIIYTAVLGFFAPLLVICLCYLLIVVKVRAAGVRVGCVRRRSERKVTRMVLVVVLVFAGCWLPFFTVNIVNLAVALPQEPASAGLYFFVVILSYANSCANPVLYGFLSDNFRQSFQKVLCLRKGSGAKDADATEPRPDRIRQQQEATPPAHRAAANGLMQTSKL
Nature of the assay: Radioligand binding assay, cloned human somatostatin receptor type 5. Conditions: CHO-K1 cell membranes, displacement of [125I]Tyr11-SRIF; mean ± SEM, single values = one experiment; read-out: Kd ± SEM hsst5.
Description: as §1, §2, §3, §4, §5

T4 sequence (P32745 whole entry): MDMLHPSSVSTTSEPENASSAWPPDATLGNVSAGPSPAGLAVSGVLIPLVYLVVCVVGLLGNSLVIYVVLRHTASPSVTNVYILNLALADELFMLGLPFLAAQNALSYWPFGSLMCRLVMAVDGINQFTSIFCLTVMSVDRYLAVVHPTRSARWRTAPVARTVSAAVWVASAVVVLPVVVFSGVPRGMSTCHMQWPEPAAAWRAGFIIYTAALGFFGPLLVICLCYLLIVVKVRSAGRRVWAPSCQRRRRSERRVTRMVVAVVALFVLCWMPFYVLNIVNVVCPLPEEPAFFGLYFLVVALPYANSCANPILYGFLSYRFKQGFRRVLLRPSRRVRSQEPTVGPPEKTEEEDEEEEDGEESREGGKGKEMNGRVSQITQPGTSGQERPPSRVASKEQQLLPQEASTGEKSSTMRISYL
T2 sequence (P31391 whole entry): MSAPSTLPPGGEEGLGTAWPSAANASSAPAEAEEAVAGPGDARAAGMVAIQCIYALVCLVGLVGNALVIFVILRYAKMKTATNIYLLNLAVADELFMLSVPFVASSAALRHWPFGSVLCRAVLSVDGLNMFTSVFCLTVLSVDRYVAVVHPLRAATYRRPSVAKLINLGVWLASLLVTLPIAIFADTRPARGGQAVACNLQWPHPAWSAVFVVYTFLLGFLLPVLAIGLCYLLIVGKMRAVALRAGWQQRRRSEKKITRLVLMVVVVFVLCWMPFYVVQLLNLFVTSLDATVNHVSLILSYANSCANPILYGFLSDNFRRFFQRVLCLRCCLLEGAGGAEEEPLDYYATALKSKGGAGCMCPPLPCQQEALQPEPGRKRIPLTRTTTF

As to `C[C@@H](O)[C@H](NC(=O)[C@@H]1CSSC[C@H](NC(=O)[C@H](N)Cc2ccccc2)C(=O)N[C@@H](Cc2ccccc2)C(=O)N[C@H](Cc2c[nH]c3ccccc23)C(=O)N(C)[C@@H](CCCCN)C(=O)N[C@@H]([C@@H](C)O)C(=O)N1)C(N)=O` [Example 5, DPhe-cyclo(Cys-Phe-DTrp-NMeLys-Thr-Cys)-Thr-NH2], the Kd in assay [1] was 1.84 ± 0.21 nM; in assay [2] it was over 1000 nM.
In the case of `C[C@@H](O)[C@H](NC(=O)[C@@H]1CSSC[C@H](NC(=O)[C@@H](N)Cc2ccc(O)cc2)C(=O)N(C)[C@@H](Cc2ccccc2)C(=O)N[C@H](Cc2c[nH]c3ccccc23)C(=O)N[C@@H](CCCCN)C(=O)N[C@@H]([C@@H](C)O)C(=O)N1)C(N)=O` [Example 12, Tyr-cyclo(Cys-NMePhe-DTrp-Lys-Thr-Cys)-Thr-NH2] (H-YC[NMeF][dW]KTCT-NH2; disulfide 2-7; N-terminus assumed), the Kd in assay [3] turned out to be 653 ± 245 nM; in assay [4] it was 94.2 ± 16.7 nM.
As to `C[C@@H](O)[C@H](NC(=O)[C@@H]1CSSC[C@H](NC(=O)[C@@H](N)Cc2ccc(O)cc2)C(=O)N[C@@H](Cc2ccccc2)C(=O)N[C@H](Cc2c[nH]c3ccccc23)C(=O)N(C)[C@@H](CCCCN)C(=O)N[C@@H]([C@@H](C)O)C(=O)N1)C(N)=O` [Example 14, Tyr-cyclo(Cys-Phe-DTrp-NMeLys-Thr-Cys)-Thr-NH2] (H-YCF[dW][NMeK]TCT-NH2; disulfide 2-7; N-terminus assumed), the Kd in assay [1] was found to be 14.2 ± 3.12 nM; in assay [3], 956 ± 43 nM; in assay [4] it was 51 ± 6.93 nM.
For the compound `C[C@@H](O)[C@@H]1NC(=O)[C@H](CCCCN)NC(=O)[C@@H](Cc2c[nH]c3ccccc23)NC(=O)[C@H](Cc2ccccc2)NC(=O)[C@@H](NC(=O)[C@H](N)Cc2ccccc2)CSSC[C@@H](C(=O)N(C)[C@H](C(N)=O)[C@@H](C)O)NC1=O` [Example 8, DPhe-cyclo(Cys-Phe-DTrp-Lys-Thr-Cys)-NMeThr-NH2], the Kd was 14.8 ± 1.53 nM in assay [1], over 1000 nM in assay [3], 182 nM in assay [2] and 124 ± 11.7 nM in assay [4].
As for `C[C@@H](O)[C@H](NC(=O)[C@@H]1CSSC[C@H](N(C)C(=O)[C@@H](N)Cc2ccc(O)cc2)C(=O)N[C@@H](Cc2ccccc2)C(=O)N[C@H](Cc2c[nH]c3ccccc23)C(=O)N[C@@H](CCCCN)C(=O)N[C@@H]([C@@H](C)O)C(=O)N1)C(N)=O` [Example 11, Tyr-cyclo(NMeCys-Phe-DTrp-Lys-Thr-Cys)-Thr-NH2] (H-Y[NMeC]F[dW]KTCT-NH2; disulfide 2-7; N-terminus assumed), the figures for the Kd in assay [1], in assay [5] and in assay [4] were 8.96 ± 1.66 nM, 114 nM and 2.73 ± 2.43 nM, respectively.
As to `C[C@@H](O)[C@H](NC(=O)[C@@H]1CSSC[C@H](NC(=O)[C@@H](N)Cc2ccc(O)cc2)C(=O)N[C@@H](Cc2ccccc2)C(=O)N[C@H](Cc2c[nH]c3ccccc23)C(=O)N[C@@H](CCCCN)C(=O)N[C@@H]([C@@H](C)O)C(=O)N1C)C(N)=O` [Example 16, Tyr-cyclo(Cys-Phe-DTrp-Lys-Thr-NMeCys)-Thr-NH2] (H-YCF[dW]KT[NMeC]T-NH2; disulfide 2-7; N-terminus assumed), the Kd in assay [3] came to 1260 nM; in assay [2], 321 nM.
Take `C[C@@H](O)[C@H](NC(=O)[C@@H]1CSSC[C@H](NC(=O)[C@H](N)Cc2ccccc2)C(=O)N(C)[C@@H](Cc2ccccc2)C(=O)N[C@H](Cc2c[nH]c3ccccc23)C(=O)N[C@@H](CCCCN)C(=O)N[C@@H]([C@@H](C)O)C(=O)N1)C(N)=O` [Example 3, DPhe-cyclo(Cys-NMePhe-DTrp-Lys-Thr-Cys)-Thr-NH2]: the equilibrium dissociation constant (Kd) in assay [1] is 13.2 ± 3.85 nM; in assay [3], over 1000 nM; in assay [2] it was over 1000 nM; in assay [4], 830 ± 86 nM.
For `C[C@@H](O)[C@@H]1NC(=O)[C@H](CCCCN)NC(=O)[C@@H](Cc2c[nH]c3ccccc23)NC(=O)[C@H](Cc2ccccc2)NC(=O)[C@@H](NC(=O)[C@@H](N)Cc2ccc(O)cc2)CSSC[C@@H](C(=O)N(C)[C@H](C(N)=O)[C@@H](C)O)NC1=O` [Example 17, Tyr-cyclo(Cys-Phe-DTrp-Lys-Thr-Cys)-NMeThr-NH2] (H-YCF[dW]KTC[NMeT]-NH2; disulfide 2-7; N-terminus assumed), the Kd was determined as 26.2 ± 10.3 nM in assay [1], 611 ± 3.5 nM in assay [3], 353 nM in assay [2] and 535 ± 200 nM in assay [4].
For `CN[C@@H](Cc1ccc(O)cc1)C(=O)N[C@H]1CSSC[C@@H](C(=O)N[C@H](C(N)=O)[C@@H](C)O)NC(=O)[C@H]([C@@H](C)O)NC(=O)[C@H](CCCCN)NC(=O)[C@@H](Cc2c[nH]c3ccccc23)NC(=O)[C@H](Cc2ccccc2)NC1=O` [Example 10, NMeTyr-cyclo(Cys-Phe-DTrp-Lys-Thr-Cys)-Thr-NH2] (H-[NMeY]CF[dW]KTCT-NH2; disulfide 2-7; N-terminus assumed), the results for the Kd in assay [1] and in assay [3] were 9.74 ± 1.87 nM and 811 ± 188 nM, respectively.
Take `C[C@@H](O)[C@H](NC(=O)[C@@H]1CSSC[C@H](NC(=O)[C@H](N)Cc2ccccc2)C(=O)N[C@@H](Cc2ccccc2)C(=O)N[C@H](Cc2c[nH]c3ccccc23)C(=O)N[C@@H](CCCCN)C(=O)N[C@@H]([C@@H](C)O)C(=O)N1)C(N)=O` [Example 9, DPhe-cyclo(Cys-Phe-DTrp-Lys-Thr-Cys)-Thr-NH2]: the Kd in assay [1] is 0.15 ± 0.08 nM; in assay [3], 761 nM; in assay [2], over 1000 nM; in assay [4], 11.8 ± 0.9 nM.
On to `C[C@@H](O)[C@H](NC(=O)[C@@H]1CSSC[C@H](NC(=O)[C@@H](N)Cc2ccc(O)cc2)C(=O)N[C@@H](Cc2ccccc2)C(=O)N[C@H](Cc2c[nH]c3ccccc23)C(=O)N[C@@H](CCCCN)C(=O)N[C@@H]([C@@H](C)O)C(=O)N1)C(N)=O` [Example 18, Tyr-cyclo(Cys-Phe-DTrp-Lys-Thr-Cys)-Thr-NH2] (H-YCF[dW]KTCT-NH2; disulfide 2-7; N-terminus assumed), for which the Kd in assay [1] was 10.3 ± 3.53 nM; in assay [3] it was 1000 nM; in assay [4], 18.2 ± 4.21 nM.
Consider `C[C@@H](O)[C@H](NC(=O)[C@@H]1CSSC[C@H](NC(=O)[C@@H](N)Cc2ccc(O)cc2)C(=O)N[C@@H](Cc2ccccc2)C(=O)N(C)[C@H](Cc2c[nH]c3ccccc23)C(=O)N[C@@H](CCCCN)C(=O)N[C@@H]([C@@H](C)O)C(=O)N1)C(N)=O` [Example 13, Tyr-cyclo(Cys-Phe-NMeDTrp-Lys-Thr-Cys)-Thr-NH2] (H-YCF[dNMeW]KTCT-NH2; disulfide 2-7; N-terminus assumed), for which the results for the Kd in assay [1] and in assay [3] were 120 ± 22.2 nM and 1000 nM, respectively.
